# Experimental data as given in patent US20240327393A1 (SIRONAX LTD., priority 2021, published 2024).
# System: HT-1080 (ATCC, CCL-121) cells
# Assay: HT-1080 cell viability assay with ferroptosis inducer RSL3 (Cell Titer-Glo)
# Assay type: cell-based
# Conditions: Homo sapiens; HT-1080 cells treated with RSL3; 3-fold, 10-point dilution, 1.1 μM highest concentration; Table 2; read-out: EC50 (nM), ferroptosis inhibitory activity
# Summary of the method: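 HT-1080 cells (6000 per well) were cultured overnight at 37 °C, then co-treated with RSL3 and compound in a 3-fold, 10-point series topping at 1.1 μM. Viability was read by CellTiter-Glo luminescence and normalized to untreated controls. EC50 came from a sigmoidal non-linear regression fit.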
row,EC50 [nM],SMILES
1,0.1 to 100,"CCn1c(=O)n(CC)c2cc(Nc3ccc(N4CCC(C)CC4)cc3)ccc21 [Compound 328, 1,3-diethyl-5-((4-(4-methylpiperidin-1-yl)phenyl)amino)-1,3-dihydro-2H-benzo[d]imidazol-2-one]"
2,0.1 to 100,"CC(C)(C)C(=O)N1CCOc2cc(Nc3ccc(N4CCC(C(F)(F)F)CC4)cc3)ccc21 [Compound 18, 2,2-dimethyl-1-(7-((4-(4-(trifluoromethyl)piperidin-1-yl)phenyl)amino)-2,3-dihydro-4H-benzo[b][1,4]oxazin-4-yl)propan-1-one]"
3,0.1 to 100,"CN1C(=O)CCOc2cc(Nc3ccc(N4CCC(C(F)(F)F)CC4)cc3)ccc21 [Compound 3, 5-methyl-8-((4-(4-(trifluoromethyl)piperidin-1-yl)phenyl)amino)-2,3-dihydrobenzo[b][1,4]oxazepin-4(5H)-one]"
4,0.1 to 100,CN1C(=O)COc2cc(Nc3ccc(N4CCCCC4)cc3)ccc21 [Compound 29]
5,0.1 to 100,"COCCn1c(=O)n(C)c2ccc(Nc3ccc(N4CCC(C(F)(F)F)CC4)cc3)cc21 [Compound 334, 3-(2-methoxyethyl)-1-methyl-5-((4-(4-(trifluoromethyl)piperidin-1-yl)phenyl)amino)-1,3-dihydro-2H-benzo[d]imidazol-2-one]"
6,0.1 to 100,"Cc1cc(N2CCC(C)CC2)ccc1Nc1ccc2c(c1)n(C)c(=O)n2C [Compound 280, 1,3-dimethyl-5-((2-methyl-4-(4-methylpiperidin-1-yl)phenyl)amino)-1,3-dihydro-2H-benzo[d]imidazol-2-one]"
7,0.1 to 100,"Cn1cc(C(N)=O)c2ccc(Nc3ccc(N4CCC(C(F)(F)F)CC4)cc3)cc21 [Compound 403, 1-methyl-6-((4-(4-(trifluoromethyl)piperidin-1-yl)phenyl)amino)-1H-indole-3-carboxamide]"
8,100 to 1000,"CC1CN(c2ccc(Nc3ccc4nnn(C)c4c3)cc2)CC(C)O1 (stereo not shown) [Compound 133, N-(4-(2,6-dimethylmorpholino)phenyl)-1-methyl-1H-benzo[d][1,2,3]triazol-6-amine]"
9,0.1 to 100,"CNCCn1c(=O)oc2ccc(Nc3ccc(N4CC(C)OC(C)C4)cc3)cc21 (stereo not shown) [Compound 427, 5-((4-(2,6-dimethylmorpholino)phenyl)amino)-3-(2-(methylamino)ethyl) benzo[d]oxazol-2(3H)-one]"
10,0.1 to 100,"CC1CN(c2ccc(Nc3ccc4c(cnn4C)c3)cc2)CC(C)O1 (stereo not shown) [Compound 422, N-(4-(2,6-dimethylmorpholino)phenyl)-1-methyl-1H-indazol-5-amine]"
11,0.1 to 100,"CCN(CCCOC)c1ccc(Nc2ccc3c(c2)n(C)c(=O)n3C)cc1 [Compound 262, 5-((4-(ethyl(3-methoxypropyl)amino)phenyl)amino)-1,3-dimethyl-1,3-dihydro-2H-benzo[d]imidazol-2-one]"
12,0.1 to 100,"C/N=c1\n(C)c2ccc(Nc3ccc(N4CCC(C(F)(F)F)CC4)cc3)cc2n1C [Compound 340, 1,3-dimethyl-2-(methylimino)-N-(4-(4-(trifluoromethyl)piperidin-1-yl)phenyl)-2,3-dihydro-1H-benzo[d]imidazol-5-amine]"
13,0.1 to 100,"Cn1c(=O)n(C)c2cc(Nc3ccc(N4CCCC4)cc3)ccc21 [Compound 271, 1,3-dimethyl-5-((4-(pyrrolidin-1-yl)phenyl)amino)-1,3-dihydro-2H-benzo[d]imidazol-2-one]"

# The next lines start with the compound.
row,SMILES,EC50 [nM]
1,"CN1C(=O)COc2cc(Nc3ccc(N4CCC(C(F)(F)F)CC4)nc3)ccc21 [Compound 17, 4-methyl-7-((6-(4-(trifluoromethyl)piperidin-1-yl)pyridin-3-yl)amino)-2H-benzo[b][1,4]oxazin-3(4H)-one]",0.1 to 100
2,"CN1C(=O)COc2cc(Nc3ccc(N4CC5CCC4CO5)c(F)c3)ccc21 (stereo not shown) [Compound 98, 7-((4-(2-oxa-5-azabicyclo[2.2.2]octan-5-yl)-3-fluorophenyl)amino)-4-methyl-2H-benzo[b][1,4]oxazin-3(4H)-one]",0.1 to 100
3,"Cc1cc(N2CCC(O)(C(F)(F)F)CC2)ccc1Nc1ccc2c(c1)OCC(=O)N2C [Compound 130, 7-((4-(4-hydroxy-4-(trifluoromethyl)piperidin-1-yl)-2-methylphenyl)amino)-4-methyl-2H-benzo[b][1,4]oxazin-3(4H)-one]",0.1 to 100
4,"CN1C(=O)COc2cc(Nc3cc(F)c(N4CCC(O)(C(F)(F)F)CC4)c(F)c3)ccc21 [Compound 160, 7-((3,5-difluoro-4-(4-hydroxy-4-(trifluoromethyl)piperidin-1-yl)phenyl)amino)-4-methyl-2H-benzo[b][1,4]oxazin-3(4H)-one]",0.1 to 100
5,Cc1cc2c(cc1Nc1ccc(N3CCC(C(F)(F)F)CC3)cc1)OCC(=O)N2C [Compound 157],0.1 to 100
6,"FC(F)(F)C1CCN(c2ccc(Nc3ccc4cn[nH]c4c3)cc2)CC1 [Compound 366, N-(4-(4-(trifluoromethyl)piperidin-1-yl)phenyl)-1H-indazol-6-amine]",0.1 to 100
7,"CN1C(=O)COc2cc(Nc3ccc4c(c3)CCCC4(C)C)ccc21 [Compound 37, 7-((5,5-dimethyl-5,6,7,8-tetrahydronaphthalen-2-yl)amino)-4-methyl-2H-benzo[b][1,4]oxazin-3(4H)-one]",0.1 to 100

# Same assay, conditions: Homo sapiens; HT-1080 cells treated with RSL3; 3-fold, 10-point dilution, 1.1 μM highest concentration; Table 3; read-out: EC50 (nM), ferroptosis inhibitory activity
row,EC50 [nM],SMILES
1,0.1 to 100,"O=C1COc2cc(Nc3ccc(N4CCC(F)CC4)cc3)cnc2N1 [Compound 554, 7-((4-(4-fluoropiperidin-1-yl)phenyl)amino)-2H-pyrido[3,2-b][1,4]oxazin-3(4H)-one]"
2,0.1 to 100,"Cc1cc(Nc2ccc3c(c2)OCC(=O)N3CCO)ccc1N1CC(C)OC(C)C1 (stereo not shown) [Compound 455, 7-((4-(2,6-dimethylmorpholino)-3-methylphenyl)amino)-4-(2-hydroxyethyl)-2H-benzo[b][1,4]oxazin-3(4H)-one]"

# The next lines start with the compound.
row,SMILES,EC50 [nM]
1,"Cc1cc(N2CCC(C(F)(F)F)C2)ccc1Nc1ccc2c(c1)OCCC(=O)N2 (stereo not shown) [Compound 628, 8-((2-methyl-4-(3-(trifluoromethyl)pyrrolidin-1-yl)phenyl)amino)-2,3-dihydrobenzo[b][1,4]oxazepin-4(5H)-one]",0.1 to 100
2,"Cc1c(Nc2ccc3c(c2)OCC(=O)N3)ccc(N2CCC(C(F)(F)F)CC2)c1C#N [Compound 537, 2-methyl-3-((3-oxo-3,4-dihydro-2H-benzo[b][1,4]oxazin-7-yl)amino)-6-(4-(trifluoromethyl)piperidin-1-yl)benzonitrile]",0.1 to 100
3,"Cc1cc(N2CCC(C(F)(F)F)CC2)ccc1Nc1ccc2[nH]c(N)nc2c1 [Compound 526, N5-(2-methyl-4-(4-(trifluoromethyl)piperidin-1-yl)phenyl)-1H-benzo[d]imidazole-2,5-diamine]",0.1 to 100
4,"Cc1cc(N2CC(F)(F)C(F)(F)C2)ccc1Nc1ccc2c(c1)OCC(=O)N2 [Compound 636, 7-((2-methyl-4-(3,3,4,4-tetrafluoropyrrolidin-1-yl)phenyl)amino)-2H-benzo[b][1,4]oxazin-3(4H)-on]",0.1 to 100
5,Cc1nc(N2CC(C)(C)OC(C)(C)C2)ccc1Nc1ccc2c(c1)OCC(=O)N2 [Compound 504],0.1 to 100
6,"COc1cc(Nc2ccc(N3CCC(C(F)(F)F)CC3)cc2C)cc2c1N(C)C(=O)CO2 [Compound 565, 5-methoxy-4-methyl-7-((2-methyl-4-(4-(trifluoromethyl)piperidin-1-yl)phenyl)amino)-2H-benzo[b][1,4]oxazin-3(4H)-one]",0.1 to 100
